Earlier results, collected in paper PMC8819907 (Journal of Experimental & Clinical Cancer Research : CR, 2022).

How the values were obtained:
[1] = tested on: patients with advanced solid tumors; set-up: method as in ref 27 (a number printed in a supplementary file, which may have a reference list of its own: not looked up in the article's list); conditions: cited from earlier work
[2] = only detectable minor component in blood; cited from earlier work
[3] = set-up: method as in PMID 32696585; conditions: cited from earlier work
KRAS-mutant NSCLC = tested on: KRAS-mutant NSCLC; set-up: method as in ref 24 (a number printed in a supplementary file, which may have a reference list of its own: not looked up in the article's list); conditions: cited from earlier work
[4] = tested on: recurrent low-grade serous carcinoma of the ovary or peritoneum; set-up: method as in ref 33,34 (a number printed in a supplementary file, which may have a reference list of its own: not looked up in the article's list); conditions: 8/52 patients; cited from earlier work
[5] = tested on: metastatic biliary tract cancers; set-up: method as in ref 33,34 (a number printed in a supplementary file, which may have a reference list of its own: not looked up in the article's list); conditions: 3/25 response evaluable patients; cited from earlier work

In the case of `Cn1ncc(Cl)c1-c1cc(C(=O)N[C@H](CN)Cc2ccc(F)c(F)c2)oc1Cl` [GSK2141795], the “RP2D for single agent” value [1] is listed as 75 mg/day.
In the case of `Cc1c(=O)n(C)c(Nc2ccc(I)cc2F)c2c(=O)n(C3CC3)c(=O)n(-c3cccc(N)c3)c12` [M5], the “share of the blood radioactivity” value [2] is listed as less than 7%.
For `O=C(c1ccc(F)c(F)c1Nc1ccc(I)cc1F)N1CC(O)([C@@H]2CCCCN2)C1` [cobimetinib], the “total AUC0−∞ lower, severe hepatic impairment vs normal hepatic function” value [3] is listed as roughly 30% and the “unbound AUC0−∞ higher, severe hepatic impairment vs normal hepatic function” value [3] is listed as roughly 2 fold.
In the case of `CC(=O)O[C@@]12CO[C@@H]1C[C@H](O)[C@@]1(C)C(=O)[C@H](O)C3=C(C)[C@@H](OC(=O)[C@H](O)[C@@H](NC(=O)OC(C)(C)C)c4ccccc4)C[C@@](O)([C@@H](OC(=O)c4ccccc4)[C@H]21)C3(C)C` [docetaxel], the “median PFS” value (KRAS-mutant NSCLC) is given as 11.4 weeks and the “overall response rate (ORR)” value (KRAS-mutant NSCLC) is given as 12%.
For `Cn1cnc2c(F)c(Nc3ccc(Br)cc3Cl)c(C(=O)NOCCO)cc21` [selumetinib], the overall response rate [4] is given as 15% and the overall response rate [5] is given as 12%.
